≈ marks a conversion by molar mass, not a printed value.
What was measured:
[1] = system: the cells; settings: Chen, Planta Med. 60 (1994), cited from earlier work; for Effect on cell proliferation: compounds obtained through extraction; for Wound healing properties / healing effects: Ecuadorian sap
[2] = system: MSSA and MRSA (Staphylococcus aureus); test: MIC, in vitro assay of MSSA and MRSA (2-fold microdilution); assay type: cell-based; settings: for MIC: Staphylococcus aureus
[3] = system: MSSA and MRSA (Staphylococcus aureus); test: MBC, in vitro assay of MSSA and MRSA; assay type: cell-based
[4] = system: S. pyogenes; test: MIC against S. pyogenes (Erythromycin and Tetracycline resistant strains); assay type: cell-based; settings: Streptococcus pyogenes, antibiotic screening
Experimental: Tables 14 and 15 show an assay whose setup is same as what was used for screening S. aureus and P. aeruginosa (i.e. 2-fold microdilution). The 20 strains of S. pyogenes assayed were selected from the two rounds of antibiotic screening to identify Erythromycin and Tetracycline resistant strains. […] For this feasibility study, AB-101 Lot 1 and Lot 2 was used. P. aeruginosa ATCC 27853 was tested as a positive control for AB-101 activity.

For Oc1cc(O)c2c(c1)O[C@H](c1cc(O)c(O)c(O)c1)[C@H](O)C2 [Epigallocatechin], the “Effect on cell proliferation” value [1] is listed as “slightly stimulating”.
For Oc1cc(O)c2c(c1)O[C@H](c1cc(O)c(O)c(O)c1)[C@@H](O)C2 [Gallocatechin], the “Effect on cell proliferation” value [1] is given as “slightly stimulating”.
In the case of C/C(=C\C(=O)OCCCCCCCCC(=O)O)C[C@@H]1OC[C@H](C[C@@H]2O[C@H]2[C@@H](C)[C@H](C)O)[C@@H](O)[C@H]1O [Mupirocin], the MIC ([2]; strain 1674606, MupirocinR, MSSA) is reported as > 256 µg/mL, the MIC ([2]; strain 1674607, MupirocinR, MRSA) is reported as > 256 µg/mL and the MIC ([2]; strain CDC 227, MupirocinS, MRSA) is reported as 0.25 to 0.5 µg/mL (≈ 0.499 to 0.999 µM). For the same compound, the MIC ([2]; strain CDC 462, MupirocinS, MSSA) was ≤ 0.25 µg/mL, the MIC ([2]; strain CDC 464, MupirocinS, MSSA) was ≤ 0.25 µg/mL and the MIC ([2]; strain CDC 484, MupirocinS, MSSA) was ≤ 0.25 µg/mL. The MIC ([2]; strain CDC 485, MupirocinS, MSSA) was ≤ 0.25 µg/mL.
In the case of COc1ccc2c(=O)oc3c(OC)cc(CCN(C)C)c4c(=O)oc1c2c34 [Taspine], the “Activity against MSSA and MRSA (MBC)” value ([3]; purified extract of taspine) is listed as “does not have activity”, the “MBC (% relative to amount in AB-101)” value ([3]; strain ATCC 29213, QC control) is listed as >50 % relative to amount in AB-101 and the “Wound healing properties / healing effects” value [1] is listed as “little healing effects”. The “Activity against MSSA and MRSA (MIC)” value ([2]; purified extract of taspine, highest concentration tested 50% relative to AB-101 = 10 μg/mL) was “does not have activity” and the “MIC (% relative to amount in AB-101)” value ([2]; strain ATCC 29213, QC control, 50% = 10 μg/mL taspine) was >50 % relative to amount in AB-101.
CN[C@H](CC(C)C)C(=O)N[C@H]1C(=O)N[C@@H](CC(N)=O)C(=O)N[C@H]2C(=O)N[C@H]3C(=O)N[C@H](C(=O)N[C@H](C(=O)O)c4cc(O)cc(O)c4-c4cc3ccc4O)[C@H](O)c3ccc(c(Cl)c3)Oc3cc2cc(c3O[C@@H]2O[C@H](CO)[C@@H](O)[C@H](O)[C@H]2O[C@H]2C[C@](C)(N)[C@H](O)[C@H](C)O2)Oc2ccc(cc2Cl)[C@H]1O [Vancomycin] gave an MIC ([4]; S. pyogenes strain 1744264) of 0.5 µg/mL (≈ 0.345 µM), an MIC ([4]; S. pyogenes strain 1744265) of 8 µg/mL (≈ 5.52 µM) and an MIC ([4]; S. pyogenes strain 1744271) of 0.5 µg/mL (≈ 0.345 µM). The MIC ([4]; S. pyogenes strain 1744272) was 1 µg/mL (≈ 0.69 µM), the MIC ([4]; S. pyogenes strain 1744275) was 0.25 to 0.5 µg/mL (≈ 0.173 to 0.345 µM) and the MIC ([4]; S. pyogenes strain 1744277) was 4 µg/mL (≈ 2.76 µM). For the same compound, the MIC ([4]; S. pyogenes strain 1744285) was 0.5 µg/mL (≈ 0.345 µM), the MIC ([4]; S. pyogenes strain 2065754) was 0.5 µg/mL (≈ 0.345 µM) and the MIC ([4]; S. pyogenes strain 2065755) was 0.5 µg/mL (≈ 0.345 µM). It also gave an MIC ([4]; S. pyogenes strain 2065756) of 0.5 µg/mL (≈ 0.345 µM), an MIC ([4]; S. pyogenes strain 2065757) of 0.5 µg/mL (≈ 0.345 µM) and an MIC ([4]; S. pyogenes strain 2065759) of 0.5 µg/mL (≈ 0.345 µM). The MIC ([4]; S. pyogenes strain 2065760) was 0.5 µg/mL (≈ 0.345 µM), the MIC ([4]; S. pyogenes strain 2065761) was 0.5 µg/mL (≈ 0.345 µM) and the MIC ([4]; S. pyogenes strain 2065762) was 0.5 µg/mL (≈ 0.345 µM). It also gave an MIC ([4]; S. pyogenes strain 2065763) of 0.5 µg/mL (≈ 0.345 µM), an MIC ([4]; S. pyogenes strain 2065765) of 2 to 4 µg/mL (≈ 1.38 to 2.76 µM) and an MIC ([4]; S. pyogenes strain 20658748) of 0.25 to 0.5 µg/mL (≈ 0.173 to 0.345 µM). The MIC ([4]; S. pyogenes strain 20658749) was 0.5 µg/mL (≈ 0.345 µM) and the MIC ([4]; S. pyogenes strain 20658750) was 0.5 µg/mL (≈ 0.345 µM).
In the case of COc1ccc([C@H]2Oc3c(OC)cc(CCCO)cc3[C@@H]2CO)cc1OC [dimethylcedrusin], the “Wound healing properties / healing effects” value [1] is listed as “little healing effects”.
For Catechin, the “Effect on cell proliferation” value [1] is listed as “little effect”.

Source: US20220280584A1, “CROTON LECHLERI COMPOSITIONS FOR USE IN TREATING BLEEDING, WOUNDS AND INFECTIONS” (priority 2019, published 2022)
